Data taken from the supplement of paper PMC10307832.

Tests used:
Test in all cases: relative viability (nuclei count vs DMSO), 5 days (fraction); higher = more cells survive
[1] = compound: COC1=CC=C(C=C1)COC2=C(C=C(C=C2)CC3=CN=C(N=C3N)N)OC [GW-2580] + COc1cccc2cc(-c3nc([C@H]4CC[C@H](C(=O)O)CC4)n4ncnc(N)c34)[nH]c12 [OSI-027] (partner 0.5 µM)
Outline: (§1)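 For relative viability, nuclei counts in treated wells were divided by those in vehicle wells. Lung cancer cell lines had been pin-tool dosed in 1536-well plates the day after seeding and cultured for 5 days, then fixed and stained in one step (final 0.05% Triton X-100, 1% formaldehyde, 1 ug/ml Hoechst) and imaged at 4×. Doses were one drug alone or a fixed anchor-drug dose plus five library-drug doses (not always all listed) in √10 steps, and values are duplicate-plate medians.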

[2] = compound: Cc1cnc(Nc2ccc(OCCN3CCCC3)cc2)nc1Nc1cccc(S(=O)(=O)NC(C)(C)C)c1 [Fedratinib] + CC(=O)c1c(C)c2cnc(Nc3ccc(N4CCNCC4)cn3)nc2n(C2CCCC2)c1=O [Palbociclib] (partner 0.5 µM)
Outline: as §1

[3] = compound: Cc1cnc(Nc2ccc(OCCN3CCCC3)cc2)nc1Nc1cccc(S(=O)(=O)NC(C)(C)C)c1 [Fedratinib] + NC(=O)Nc1cc(-c2cccc(F)c2)sc1C(=O)N[C@H]1CCCNC1 [AZD7762] (partner 0.2 µM)
Outline: as §1

[4] = compound: COC1=CC=C(C=C1)COC2=C(C=C(C=C2)CC3=CN=C(N=C3N)N)OC [GW-2580] + Cc1nc(NC(=O)N2CCC[C@H]2C(N)=O)sc1-c1ccnc(C(C)(C)C(F)(F)F)c1 [Alpelisib] (partner 2 µM)
Outline: as §1

[5] = compound: Cc1cnc(Nc2ccc(OCCN3CCCC3)cc2)nc1Nc1cccc(S(=O)(=O)NC(C)(C)C)c1 [Fedratinib] + CC(C)C[C@H](NC(=O)[C@H](Cc1ccccc1)NC(=O)c1cnccn1)B(O)O [Bortezomib] (partner 0.002 µM)
Outline: as §1

[6] = compound: Cc1cnc(Nc2ccc(OCCN3CCCC3)cc2)nc1Nc1cccc(S(=O)(=O)NC(C)(C)C)c1 [Fedratinib] + CS(=O)(=O)CCNCc1ccc(-c2ccc3ncnc(Nc4ccc(OCc5cccc(F)c5)c(Cl)c4)c3c2)o1 [Lapatinib] (partner 2 µM)
Outline: as §1

Row | Cell Line | relative viability ([1]; first compound 0.08 µM) | relative viability ([1]; first compound 0.8 µM) | relative viability ([1]; first compound 2.53 µM) | relative viability ([1]; first compound 8 µM) | relative viability ([2]; first compound 0.1 µM) | relative viability ([2]; first compound 0.3162 µM) | relative viability ([2]; first compound 1 µM) | relative viability ([3]; first compound 0.1 µM) | relative viability ([3]; first compound 0.3162 µM) | relative viability ([3]; first compound 1 µM) | relative viability ([4]; first compound 0.08 µM) | relative viability ([4]; first compound 0.8 µM) | relative viability ([4]; first compound 2.53 µM) | relative viability ([4]; first compound 8 µM) | relative viability ([5]; first compound 0.1 µM) | relative viability ([5]; first compound 0.3162 µM) | relative viability ([5]; first compound 1 µM) | relative viability ([6]; first compound 0.1 µM) | relative viability ([6]; first compound 0.3162 µM) | relative viability ([6]; first compound 1 µM)
1 | NCI-H2342 | 0.574 | 0.671 | 0.519 | 0.62 | 0.531 | 0.606 | 0.593 | 0.443 | 0.528 | 0.56 |  |  |  |  |  |  |  |  |  | 
2 | HCC-15 | 0.743 | 0.787 | 0.596 | 0.656 | 0.664 | 0.708 | 0.636 | 1.19 | 1.28 | 1.2 | 0.915 | 0.894 | 0.87 | 0.82 | 1.04 | 0.963 | 0.469 | 0.879 | 0.876 | 0.446
3 | A-427 | 0.453 | 0.371 | 0.518 | 0.435 | 0.505 | 0.492 | 0.487 | 0.573 | 0.671 | 0.556 | 1.08 | 1.12 | 1.02 | 1.09 | 0.95 | 0.889 | 0.558 | 1.06 | 0.984 | 0.591
4 | NCI-H2228 | 0.569 | 0.6 | 0.639 | 0.545 | 0.648 | 0.53 | 0.523 |  |  |  | 0.91 | 0.886 | 0.627 | 0.775 | 1.35 | 0.866 | 0.408 | 1.04 | 1.07 | 0.22
5 | NCI-H1734 | 0.617 | 0.65 | 0.582 | 0.537 | 0.415 | 0.344 | 0.334 | 0.709 | 0.512 | 0.515 | 0.697 | 0.761 | 0.654 | 0.671 | 1.06 | 0.856 | 0.231 | 1.18 | 1.1 | 0.183
6 | PC-14 | 1 | 1.08 | 0.671 | 0.817 | 0.592 | 0.58 | 0.402 | 0.275 | 0.349 | 0.215 | 0.995 | 1.14 | 0.864 | 0.906 | 0.885 | 0.81 | 0.951 | 0.261 | 0.351 | 0.249
7 | NCI-H1915 | 0.638 | 0.649 | 0.626 | 0.598 | 0.505 | 0.498 | 0.422 | 0.754 | 0.66 | 0.67 | 1.06 | 1.12 | 1.09 | 1.02 | 0.986 | 0.872 | 0.662 | 0.891 | 0.985 | 0.662
8 | NCI-H1666 | 0.941 | 1.12 | 0.911 | 0.77 | 0.636 | 0.657 | 0.629 | 0.751 | 0.836 | 0.807 | 1.17 | 1.21 | 1 | 1.03 | 0.649 | 0.944 | 0.276 | 0.503 | 0.671 | 0.258
9 | SK-MES-1 | 0.625 | 0.723 | 0.592 | 0.379 | 0.339 | 0.32 | 0.271 |  |  |  | 1.15 | 0.907 | 0.94 | 0.885 |  |  |  | 0.469 | 0.481 | 0.458
10 | SW 1573 | 0.809 | 0.626 | 0.666 | 0.577 | 0.41 | 0.373 | 0.302 |  |  |  | 0.841 | 0.797 | 0.698 | 0.674 | 1.05 | 0.911 | 0.983 | 1.13 | 1.15 | 1.01
11 | NCI-H661 | 0.739 | 0.754 | 0.644 | 0.543 | 0.397 | 0.401 | 0.359 |  |  |  | 0.542 | 0.835 | 0.426 | 0.479 | 0.81 | 0.894 | 0.9 | 0.471 | 0.496 | 0.44
12 | NCI-H1623 | 0.4 | 0.475 | 0.393 | 0.428 |  |  |  |  |  |  |  |  |  |  |  |  |  |  |  | 
13 | Calu-6 |  |  |  |  |  |  |  |  |  |  | 1.08 | 0.964 | 0.902 | 1.07 | 1.05 | 0.981 | 0.771 | 1.29 | 1 | 0.945
14 | NCI-H1650 | 0.738 | 0.747 | 0.624 | 0.464 | 0.299 | 0.408 | 0.288 |  |  |  |  |  |  |  | 0.199 | 0.221 | 0.193 | 0.548 | 0.925 | 0.183
15 | NCI-H2170 | 0.757 | 0.745 | 0.735 | 0.748 | 0.379 | 0.363 | 0.344 | 0.77 | 0.821 | 0.644 | 0.892 | 0.842 | 0.741 | 0.902 |  |  |  | 0.255 | 0.262 | 0.258
16 | NCI-H1299 |  |  |  |  |  |  |  |  |  |  | 1.2 | 1.04 | 1.04 | 1.07 | 1.05 | 1.02 | 1.01 | 0.963 | 0.96 | 0.983
17 | EBC-1 |  |  |  |  |  |  |  |  |  |  | 0.91 | 1 | 0.746 | 0.887 | 0.478 | 0.501 | 0.39 | 0.175 | 0.193 | 0.177
18 | NCI-H1648 | 0.27 |  |  | 0.231 | 0.257 | 0.262 | 0.25 | 0.818 | 0.558 | 0.548 |  |  |  |  |  |  |  |  |  | 
19 | ChaGo-K-1 | 0.625 | 0.548 | 0.532 | 0.575 | 0.966 | 0.814 | 0.961 | 0.921 | 0.829 | 0.81 |  |  |  |  | 0.932 | 1.1 | 0.777 |  |  | 
20 | COR-L23 | 1.01 | 0.994 | 0.655 | 0.753 | 0.303 | 0.26 | 0.131 |  |  |  | 0.856 | 0.83 | 0.611 | 0.815 | 1.14 | 0.975 | 0.938 | 1.04 | 0.999 | 1.07
